Results taken from patent publication US11230578B2, “Peptides and use of same in the treatment of diseases, disorders or conditions associated with a mutant P53” (Yeda Research and Development Co. Ltd., priority 2016, dated 2022).
Like-named read-outs stand apart in the source and are kept apart here.

Experiments:
[1] = test system: ES2 ovarian cancer cells (p53 mutant S241F); format: cell-based
Procedure: Cells were cultured in 96 wells plates with 3000 cells/well. […] Then medium was removed and cell viability was determined by staining the cells with crystal violet (0.05%) in methanol/PBS (1:5, v/v), for 10 min, followed by 3 washes with PBS. 10% acetic acid was added to each well for 10 min. OD was determined at 595 nm.
Cells, ES2 Con expressing endogenous mp53^S241F, and ES2 KO cells in which p53 was stably knocked out using CRISPR/Cas9 (ES2 p53KO), to control for specificity for mutp53 were cultured in 96 wells plates with 3000 cells/well. Indicated peptides were added at a concentration of 8 μg/ml and the plates incubated for additional 48 h at 37° C. Then medium was removed and cell viability was determined by staining the cells with crystal violet (0.05%) in methanol/PBS (1:5, v/v), for 10 min, followed by 3 washes with PBS. 10% acetic acid was added to each well for 10 min. OD was determined at 595 nm.
Cells were cultured in 96 wells plates with 3000 cells/well. Serial dilutions of different peptides were added and the plates incubated for additional 48 h at 37° C. Then the medium was removed and cell viability was determined by staining the cells with crystal violet (0.05%) in methanol/PBS (1:5, v/v), for 10 min, followed by 3 washes with PBS. 10% acetic acid was added to each well for 10 min. OD was determined at 595 nm. Results are normalized to non-treated cells 100% viability.
Cells were cultured in 96 wells plates with 2500-4000 cells/well. Serial dilutions of different peptides were added and the plates incubated for additional 48 h at 37° C. Then medium was removed and cell viability was determined by staining the cells with crystal violet (0.05%) in methanol/PBS (1:5, v/v), for 10 min, followed by 3 washes with PBS. 10% acetic acid was added to each well for 10 min. OD was determined at 595 nm.
ES2 Cells were cultured in 96 wells plates with 3000 cells/well. […] Then medium was removed and cell viability was determined by staining the cells with crystal violet (0.05%) in methanol/PBS (1:5, v/v), for 10 min, followed by 3 washes with PBS. 10% acetic acid was added to each well for 10 min. OD was determined at 595 nm.
Cells, ES2 Con expressing endogenous mp53S241F, and ES2 KO cells in which p53 was stably knocked out using CRISPR/Cas9 (ES2 p53KO), to control for specificity for mutp53 were cultured in 96 wells plates with 3000 cells/well. The indicated peptides were added at a concentration of 8 μg/ml and the plates incubated for additional 48 h at 37° C. Then medium was removed and cell viability was determined by staining the cells with crystal violet (0.05%) in methanol/PBS (1:5, v/v), for 10 min, followed by 3 washes with PBS. 10% acetic acid was added to each well for 10 min. OD was determined at 595 nm.

[2] = Pharmacokinetic study, plasma half life; format: in vivo
Description: FIGS. 4A-D show the pharmacokinetics of various modes of administration.

[3] = test system: ES2 cells expressing luciferase; experiment: ES2 ovarian cancer mouse xenograft model, luciferase live imaging; format: in vivo, nude mice
Procedure: 2*10^5 ES2 cells expressing luciferase were injected into the hips of nude mice. Bioluminescence was measured. […] The background threshold detection level of the IVIS system was about 5×10^6 photons. […]
Mice (6 weeks Athymic nude) were injected subcutaneously with 2×10^5-10^6 cells into each […]. All the cell lines employed in these experiments stably express a luciferase reporter gene to enable monitoring of tumor growth by live imaging. 4-18 days later, when tumors reached visible size, the mice were randomly divided into several groups: a control group, treated with either a single control peptide, and groups treated with effective peptide, either a single peptide. Peptides were administered either by intratumoral injection of 10 μg peptide per tumor in 40 μl PBS, three times a week or by Alzet mini pumps 0.8 mg for two weeks. Tumor growth over time was measured by live imaging, using the IVIS2000 system. Exposure time was calibrated to 20 seconds. 16 images were taken over 8 minutes and peak luminescence values were taken for each tumor. Experiments were conducted until tumors reached maximal allowed size of 1 cm^3, at which mice were sacrificed and tumors extracted, measured and weighed.

IC50 ([1]; 48 h): 3200 nM | IC50 ([1]; read-out: IC50 for pCAP-250 in combination with cisplatin, cell viability, ES2 cells, together with 1 μg/ml of cisplatin, 48 h, estimated): 1900 nM | half-life ([2]; iv, 1 mg/kg, administered intravenously): 0.8 to 1.8 h | half-life ([2]; sc, administered subcutaneously): 3 to 8 h
Compound: CCCCCCCCCCCCCC(=O)N[C@@H](CCCNC(=N)N)C(=O)N[C@@H](CCCNC(=N)N)C(=O)N[C@@H](Cc1c[nH]cn1)C(=O)N[C@@H](CO)C(=O)N[C@H](C(=O)N1CCC[C@H]1C(=O)N[C@@H](Cc1c[nH]cn1)C(=O)N1CCC[C@H]1C(=O)N[C@@H](CC(=O)O)C(=O)O)[C@@H](C)O [pCAP-250]
viability of the cancer cells in the presence of peptide ([1]; ES2 cells, FIG. 1): reduced significantly | combination effect of pCAP-250 and cisplatin ([1]; ES2 cells, pCAP-250 dilutions + 1 μg/ml cisplatin, 48 h): synergistic effect | effect on tumor development of ES2 cells ([3]; intratumoral injections, 0.4 mg/kg 3 times a week): significant effect | effect on tumor development of ES2 cells ([3]; subcutaneously by Alzet minipumps, 2.3 mg/kg per day): significant effect
